According to patent US20240384268A1, “Oligonucleotides” (Hudson Institute of Medical Research, priority 2021, published 2024):
In the oligonucleotide strings, read from the 5' end, every base follows the letter of its sugar. An asterisk marks phosphorothioate; unmarked linkages are phosphodiester. Other units and linkages are bracketed, terminal groups are in braces. A string of capitals states the bases alone. e = 2'-O-(2-methoxyethyl) (MOE); d = 2'-deoxy (DNA); m = 2'-O-methyl

What follows are substances tested against T1, human TLR9 (Homo sapiens, UniProt Q9NR96) (assay: HEK-TLR9 NF-κB-luciferase reporter, ODN2006 stimulation). Conditions: HEK-TLR9; 500 nM 2′OMe or PS oligos; 200 nM ODN2006.
T1 construct: HA; host or cells: 293XL-hTLR9-HA (HEK293)
T1 sequence (Q9NR96 26-1032): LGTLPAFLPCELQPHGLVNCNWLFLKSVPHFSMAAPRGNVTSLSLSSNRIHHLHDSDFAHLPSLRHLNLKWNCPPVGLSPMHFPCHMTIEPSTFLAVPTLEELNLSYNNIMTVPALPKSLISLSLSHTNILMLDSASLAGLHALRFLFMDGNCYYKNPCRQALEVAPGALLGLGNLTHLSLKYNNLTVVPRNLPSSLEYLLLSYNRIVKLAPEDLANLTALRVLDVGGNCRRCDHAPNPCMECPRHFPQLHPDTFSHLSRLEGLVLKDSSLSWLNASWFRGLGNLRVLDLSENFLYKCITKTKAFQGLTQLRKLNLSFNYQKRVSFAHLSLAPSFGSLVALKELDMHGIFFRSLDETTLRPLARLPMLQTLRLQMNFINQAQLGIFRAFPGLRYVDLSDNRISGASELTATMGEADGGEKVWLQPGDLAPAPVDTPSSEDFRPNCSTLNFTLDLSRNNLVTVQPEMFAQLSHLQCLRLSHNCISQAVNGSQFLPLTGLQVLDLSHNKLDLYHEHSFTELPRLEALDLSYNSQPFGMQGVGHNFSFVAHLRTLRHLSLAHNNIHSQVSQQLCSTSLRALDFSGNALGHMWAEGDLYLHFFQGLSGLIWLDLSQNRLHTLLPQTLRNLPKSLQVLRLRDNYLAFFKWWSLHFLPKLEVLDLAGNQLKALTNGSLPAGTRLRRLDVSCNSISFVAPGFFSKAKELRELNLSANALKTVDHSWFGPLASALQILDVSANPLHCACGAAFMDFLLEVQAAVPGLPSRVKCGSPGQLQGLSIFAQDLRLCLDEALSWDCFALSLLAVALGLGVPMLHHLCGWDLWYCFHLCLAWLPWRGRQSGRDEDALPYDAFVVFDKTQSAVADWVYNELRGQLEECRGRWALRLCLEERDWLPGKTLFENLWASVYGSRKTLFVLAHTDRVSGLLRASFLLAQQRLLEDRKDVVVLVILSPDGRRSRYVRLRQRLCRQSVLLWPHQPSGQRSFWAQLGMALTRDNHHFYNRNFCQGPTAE
Format: cell-based
Procedure: In such examples, inhibition of TLR9 activity can be identified by observation of an overall decreased TLR9 response of the cell population, or a lower proportion of cells having TLR9-positive activity as compared to positive control condition in which cells are treated with TLR9 agonist in the absence of the oligonucleotide (or in the presence of an appropriate control inhibitory agent). In one example, HEK cells are transfected with TLR9 and a NF-κB reporter and incubated with an oligonucleotide and then stimulated with a TLR9 agonist. TLR9 activity can then be determined by a luciferase assay. TLR9 activity can also be analysed by measuring cytokine levels (e.g., IFN, IL-6, TNF and IL-12), for example by ELISA.
(§1) For cGAS stimulations, cells were treated for indicated duration with ASOs, prior to transfection with ISD70 (human cells) or ISD45 (mouse cells) (the ASOs were not washed off prior to ISD transfection unless otherwise indicated). The cGAS ligands ISD45 (Stetson and Medzhitov, 2006) and ISD70 (also known as VACV-70 (Unterholzner et al., 2010)) (Table 1) were resuspended as follows: 5 1d of sense and 5 μl of antisense strands at 10 μg/μl were added to 90 μl PBS under sterile conditions, heated at 75° C. for 30 min, prior to letting cool down at room temperature and aliquoting (stock at 1 μg/1 l). The ISDs were transfected at a concentration of […] at a ratio of 1 μg:1 μl with Lipofectamine 2000 in Opti-MEM (Thermo Fisher Scientific). HEK-TLR3, HEK-TLR7 and […] were treated with indicated concentration of ASOs for 20-50 min, prior to stimulation with poly(I:C) (Invivogen), R848 (Invivogen), Motolimod (MedChemExpress) and the Class B CpG oligonucleotides ODN 2006 (synthesised by IDT and resuspended in RNase-free TE buffer [Table 1]), respectively. The TLR2/1 agonist PAM3CSK4 (Invivogen), the TLR4 agonist lipopolysaccharide (Invivogen), the Class B CpG oligonucleotides ODN 1826 (synthesised by IDT and resuspended in RNase-free TE buffer), the mouse Sting agonist DMXAA (Cayman) and the human STING agonist (compound #3 from (Raanjulu et al., 2018), referred to as GSK herein—kind gift from Cancer Therapeutics CRC, Australia) were used at indicated concentrations. Aspirin (Sigma—A2093) was resuspended in pure medium to 10 mM, filter sterilised and added to the cells at 2 mM final. All ASOs were synthesised by Integrated DNA Technologies (IDT), and resuspended in RNase-free TE buffer, pH 8.0 (Thermo Fisher Scientific). Cell viability was assessed by adding 1× fresh resazurin solution to the wells (10λ solution made up with 7 mg resazurin [Sigma—R7017] dissolved in 3.5 ml PBS, sterile filtered at […]) for 4 h, prior to reading at with a Fluostar OPTIMA (BMG LABTECH) plate-reader (fluorescence: Excitation 535 nm, Emission 590); wells with medium only and 1× resazurin were used as blanks.
Following transfection, the cells were collected from the 6-wells and aliquoted into 96-wells, just before ASO and overnight TLR stimulation (as above described). Similarly, the LL171 cells expressing and ISRE-Luc reporter were treated overnight. The next day, the cells were lysed in 40 μl (for a 96-well plate) of 1× Glo Lysis buffer (Promega) for 10 min at room temperature. […] was then subjected to firefly luciferase assay using 40 μl of Luciferase Assay Reagent (Promega). Luminescence was quantified with a Fluostar OPTIMA (BMG LABTECH) luminometer.

| Substance | inhibition of TLR9 sensing of ODN2006 (in words) |
| --- | --- |
| mA*mC*mU*mU*mC*G*T*G*G*G*G*T*C*C*T*mU*mU*mU*mC*mA (ACUUCGTGGGGTCCTUUUCA; antisense; sugars from the 5' end m5 d10 m5, all phosphorothioate, methylation of C not given here) [[HPRT]661] | significantly limited inhibition |
| mC*mA*mA*mC*mA*C*T*T*C*G*T*G*G*G*G*mU*mC*mC*mU*mU (CAACACTTCGTGGGGUCCUU; antisense; sugars from the 5' end m5 d10 m5, all phosphorothioate, methylation of C not given here) [[HPRT]665] | only poorly inhibitory |
| mC*mA*mC*mU*mU*C*G*T*G*G*G*G*T*C*C*mU*mU*mU*mU*mC (CACUUCGTGGGGTCCUUUUC; antisense; sugars from the 5' end m5 d10 m5, all phosphorothioate, methylation of C not given here) [[HPRT]662] | strongest inhibition of this series of ASOs |
| mC*mA*mU*mU*mA*G*G*T*G*C*A*G*A*A*A*mU*mC*mU*mU*mC (mC*mA*mU*mU*mA*dG*dG*dT*dG*dC*dA*dG*dA*dA*dA*mU*mC*mU*mU*mC) [ASO8] | significantly inhibited TLR9 sensing of ODN2006 |
| mC*mC*mA*mA*mC*A*C*T*T*C*G*T*G*G*G*mG*mU*mC*mC*mU (CCAACACTTCGTGGGGUCCU; antisense; sugars from the 5' end m5 d10 m5, all phosphorothioate, methylation of C not given here) [[HPRT]666] | strongly inhibited TLR9 |
| mG*mC*mG*mG*mU*A*T*C*C*A*T*A*G*T*C*mU*mC*mC*mA*mU (mG*mC*mG*mG*mU*dA*dT*dC*dC*dA*dT*dA*dG*dT*dC*mU*mC*mC*mA*mU; antisense) [C2-ASO2-A] | significantly better inhibitors of TLR9 than their parent ASO |
| mG*mG*mA*mG*mC*T*T*C*G*A*G*G*C*C*C*mC*mA*mG*mG*mC (mG*mG*mA*mG*mC*dT*dT*dC*dG*dA*dG*dG*dC*dC*dC*mC*mA*mG*mG*mC; antisense) [ASO6] | significantly inhibited TLR9 sensing of ODN2006 |
| mG*mG*mU*mG*mG*T*C*C*A*C*A*A*C*C*C*mC*mU*mU*mU*mC (mG*mG*mU*mG*mG*dT*dC*dC*dA*dC*dA*dA*dC*dC*dC*mC*mU*mU*mU*mC; antisense) [ASO7] | significantly inhibited TLR9 sensing of ODN2006 |
| mU*mC*mC*mG*mG*G*T*C*G*T*A*G*T*T*G*mC*mU*mU*mC*mC (UCCGGGTCGTAGTTGCUUCC; antisense; sugars from the 5' end m5 d10 m5, all phosphorothioate, methylation of C not given here) [ASO11Mut2] | conferred significant TLR9 inhibition |

The substances below were run against T2, human TLR7 (Homo sapiens, UniProt Q9NYK1) (assay: HEK-TLR7 NF-κB-luciferase reporter, R848 stimulation). Conditions: HEK-TLR7; 400 nM 5-nt 2′OMe oligo 6 h before R848 1 μg/ml.
T2 construct: HA; host or cells: 293XL-hTLR7-HA (HEK293)
T2 sequence (Q9NYK1 27-1049): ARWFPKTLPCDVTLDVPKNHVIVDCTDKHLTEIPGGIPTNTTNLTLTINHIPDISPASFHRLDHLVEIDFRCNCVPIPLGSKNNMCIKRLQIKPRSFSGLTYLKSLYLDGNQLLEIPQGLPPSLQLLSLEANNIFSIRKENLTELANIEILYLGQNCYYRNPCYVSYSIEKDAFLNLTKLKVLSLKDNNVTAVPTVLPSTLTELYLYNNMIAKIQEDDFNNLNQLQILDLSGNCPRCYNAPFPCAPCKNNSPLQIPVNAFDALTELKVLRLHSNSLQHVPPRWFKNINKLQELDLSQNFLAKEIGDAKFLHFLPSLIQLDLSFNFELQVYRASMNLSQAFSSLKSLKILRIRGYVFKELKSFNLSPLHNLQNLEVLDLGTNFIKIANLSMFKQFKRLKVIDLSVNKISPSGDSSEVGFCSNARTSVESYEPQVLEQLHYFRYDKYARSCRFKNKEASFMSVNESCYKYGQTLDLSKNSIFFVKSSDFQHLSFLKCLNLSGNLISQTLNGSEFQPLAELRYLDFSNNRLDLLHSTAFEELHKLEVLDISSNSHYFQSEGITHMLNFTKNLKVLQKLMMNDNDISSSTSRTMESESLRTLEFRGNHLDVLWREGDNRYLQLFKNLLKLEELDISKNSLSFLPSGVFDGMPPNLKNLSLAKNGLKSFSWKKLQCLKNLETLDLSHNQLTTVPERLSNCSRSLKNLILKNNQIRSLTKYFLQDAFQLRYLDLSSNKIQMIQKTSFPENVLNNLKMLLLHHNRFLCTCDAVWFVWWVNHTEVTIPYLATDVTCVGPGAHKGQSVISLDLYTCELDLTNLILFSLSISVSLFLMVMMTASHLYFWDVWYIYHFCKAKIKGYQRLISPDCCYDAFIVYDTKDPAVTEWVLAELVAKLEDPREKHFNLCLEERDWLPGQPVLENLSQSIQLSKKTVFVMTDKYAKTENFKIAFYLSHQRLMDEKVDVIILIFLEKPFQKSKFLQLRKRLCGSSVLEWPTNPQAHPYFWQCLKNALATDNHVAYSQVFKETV
Format: cell-based
Procedure: In such examples, inhibition of TLR7 activity can be identified by observation of an overall decreased TLR7 response of the cell population, or a lower proportion of cells having TLR7-positive activity as compared to positive control condition in which cells are treated with TLR7 agonist in the absence of the oligonucleotide (or in the presence of an appropriate control inhibitory agent). In one example, 293XLhTLR7 (referred to as HEK-TLR7) cells are transfected with pNF-κB-Luc4 reporter, incubated with an oligonucleotide, and then stimulated with R848. TLR7 activity can be determined by a luciferase assay, which measures activated NF-κB by luminescence. TLR7 activity can also be analysed by measuring cytokine levels, for example by ELISA. […] TLR7 activity may then be assessed by the gene or protein expression of TLR7-responsive genes, such as Tnfα and Oas3.
as §1
Following transfection, the cells were collected from the 6-wells and aliquoted into 96-wells, just before ASO and overnight TLR stimulation (as above described). Similarly, the LL171 cells expressing and ISRE-Luc reporter were treated overnight.

| Substance | inhibition of R848 sensing by TLR7, 6 h pre-treatment (in words) |
| --- | --- |
| mC*mG*mU*mU*mU [ShortMut1v3] | failed to do so |
| mG*mG*mU*mA*mU [ShortMut1] | sufficient to inhibit R848 sensing |

Same assay, conditions: HEK-TLR7; 100-500 nM oligo 20-50 min before R848 1 μg/ml

| Substance | inhibition of R848 sensing by TLR7, short pre-treatment (in words) |
| --- | --- |
| /52MOErT/*/i2MOErG/*/i2MOErT/*/i2MOErC/*/i2MOErC/*T*T*G*C*A*C*G*T*G*C*/i2MOErC/*/i2MOErT/*/i2MOErA/*/i2MOErA/*/32MOErG/ (TGTCCTTGCACGTGCCTAAG; sugars from the 5' end e5 d10 e5, all phosphorothioate, methylation of C not given here) [F5-Mut] | significantly less inhibitory |
| mG*mG*mU*mA*mU [ShortMut1] | no inhibition was observed |
